Laboratory results: PMC6270821, “ROS-Mediated Cytotoxic Effect of Copper(II) Hydrazone Complexes against Human Glioma Cells” (Molecules, 2014)

Key:
[1] = target: T1, bovine serum albumin (BSA) (Bos taurus, UniProt P02769); assay: Synchronous fluorescence spectra of BSA; assay type: binding; conditions: 1.0 µM BSA, up to 10.0 µM compound; for decrease of BSA synchronous fluorescence intensity at Δλ = 60 nm: tryptophan residues; for decrease of BSA synchronous fluorescence intensity at Δλ = 15 nm: tyrosine residues
T1 construct: purchased Sigma-Aldrich Brasil
T1 sequence (P02769 25-607): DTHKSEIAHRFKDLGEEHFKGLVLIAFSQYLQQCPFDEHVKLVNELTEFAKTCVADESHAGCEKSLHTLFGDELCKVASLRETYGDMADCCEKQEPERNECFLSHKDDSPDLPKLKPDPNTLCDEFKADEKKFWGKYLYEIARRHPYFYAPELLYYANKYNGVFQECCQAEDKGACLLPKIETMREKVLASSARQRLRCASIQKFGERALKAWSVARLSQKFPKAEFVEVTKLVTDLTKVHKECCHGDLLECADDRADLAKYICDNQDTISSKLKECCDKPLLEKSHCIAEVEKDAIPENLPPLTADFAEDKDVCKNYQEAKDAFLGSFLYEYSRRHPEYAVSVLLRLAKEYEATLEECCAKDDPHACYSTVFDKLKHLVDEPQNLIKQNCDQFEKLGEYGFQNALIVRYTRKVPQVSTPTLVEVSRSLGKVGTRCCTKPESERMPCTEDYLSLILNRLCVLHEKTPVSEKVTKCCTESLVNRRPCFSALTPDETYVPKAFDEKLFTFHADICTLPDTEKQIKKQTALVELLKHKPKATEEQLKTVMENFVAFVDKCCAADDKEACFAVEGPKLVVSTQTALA
Procedure: Synchronous fluorescence spectroscopy is a very useful method to study the changes in the microenvironment of tyrosine and tryptophan amino acid residues in BSA [39]. The spectra were measured after and before the addition of test compounds. The synchronous fluorescence of BSA is characteristic of tyrosine residues when the difference between excitation and emission wavelength Δλ value is 15 nm and characteristic of tryptophan residues if Δλ value is 60 nm. […] In both cases, a decrease in emission intensity of BSA with increasing complex concentration was observed. […] In the spectra at Δλ = 60 nm, an important decrease of the BSA fluorescence intensity (~41% for 1 and ~44% for 2) accompanied by a small blue shift of 1nm occurs.
(§1) The binding of the copper(II) complexes to BSA was studied using fluorescence spectra. The emission spectra were recorded in the 295–600 nm range with excitation at 280 nm. The excitation and emission slit widths and scan rates were constantly maintained for all the experiments. BSA solution (1.0 µM) was titrated by successive additions of a stock solution of the complexes (50 mM) using a micropipette. All experiments were performed at 298 K. The synchronous fluorescence spectra of BSA varying the concentration of 1 and 2 were recorded at ∆λ (difference between excitation and emission wavelength) = 15 nm and ∆λ = 60 nm.

[2] = test system: U87 (p53 wild-type glioblastoma multiforme) cells; assay: MTT cytotoxicity assay, U87 cells; assay type: cell-based, human; conditions: for IC50: MTT, 48 h treatment; for selectivity index (SI = IC50MRC5/IC50tumor cell), U87: U87 vs MRC5
Procedure: (§2) The in vitro cytotoxic effects of H2AcMe, H2BzMe and complexes 1 and 2 against wild type p53 U87 and mutant p53 T98 glioblastoma cells and against MRC-5 fibroblasts cells were tested using cisplatin as a positive control. To determine the IC50 (concentration that inhibits 50% of cell survival) values the cytotoxic effects were quantified using the 3-(4,5-dimethyl-2-thioazolyl)-2,5-diphenyl tetrazolium bromide (MTT) colorimetric assay. All tested compounds were cytotoxic against both glioma cell lines in a dose-dependent way. The IC50 values (see Table 1) were found in the micromolar range. Despite their cytotoxic activity, all compounds were less toxic to fibroblasts cells than cisplatin. CuCl2 evoked only mild cytotoxicity in all cell lineages with IC50 higher than 100 µM.
(§3) U87 (p53 wild-type glioblastoma multiforme) and T98 (p53 mutant glioblastoma multiforme) malignant human tumor cells and MRC5 (Human Fetal Lung Fibroblast) cells were obtained from the American Type Culture Collection (ATCC, Manassas, VA, USA). Cell lines were grown as monolayer in Dulbecco’s Modified Eagle’s Medium (DMEM, Gibco, Rockville, MD, USA), supplemented with 10% fetal bovine serum (Cultilab, Campinas, São Paulo, Brazil) and antibiotics (50 U/mL penicillin/50 […] streptomycin), in a humidified atmosphere air/CO2 (95%/5%) at 37 °C. Cells 80% confluents were used in all experiments. For all experiments, cells were seeded in 96-well plates, at a density of 1000 cells/well. After 24 h incubation cells were treated.
(§4) To determine the IC50 values the cytotoxic effects were quantified using the 3-(4,5-dimethyl-2-thioazolyl)-2,5-diphenyltetrazolium bromide (MTT) colorimetric assay. Briefly, cells were treated with increasing concentrations (10^−12, 10^−11, 10^−10, 10^−9, 10^−8, 10^−7, 10^−6, 10^−5, 10^−4 mol·L^−1) of either cisplatin (positive control) or test compounds (H2AcMe, H2BzMe, 1 and 2). The compounds were previously dissolved in dimethyl sulfoxide (DMSO) and the final concentrations were adjusted in DMEM in such manner that the final DMSO concentration was lower than 0.5%. Following 48 h treatment, MTT reagent was added to each well. Following another 4 h of incubation at 37 °C, DMSO was added to each well to dissolve formazan precipitate and absorbance was measured at 570 nm. Tests using DMSO (0.5% in DMEM) as negative control were carried out in parallel. All tests were performed in quadruplicates with full agreement between the results. Statistical analysis was carried out by the unpaired, one-tailed Student’s t testing using a p value of 0.05. A value of p < 0.05 was considered significant.

[3] = test system: MRC5 cells; assay: ROS generation, DCFH-DA assay, MRC5 cells; assay type: cell-based, human; conditions: 1 × 10^−5 mol/L, 24 h
Source text: (§5) To examine the effects of H2AcMe, H2BzMe and their complexes 1 and 2 on the generation of free radicals (reactive oxygen species, ROS), we used the 2',7'-dichlorodihydrofluorescein diacetate (DCFH-DA) assay.
(§6) ROS accumulation was detected using dichlorodihydrofluorescein diacetate (DCFH-DA, Sigma). DCFH-DA is a non-fluorescent compound, that when it is taken up by passive diffusion into the cells, is hydrolyzed by esterases to yield non-permeable DCFH. In the presence of ROS, DCFH is oxidized to the fluorescent DCF. Tumor cells were treated with the compounds for 24 h and were then incubated with DCFH-DA (1 × 10^−5 mol·L^−1) for 30 min at 37 °C. Following incubation, the cells were washed twice with PBS. Thereafter, the cells were observed under the fluorescent microscope Zeiss Axionplan coupled with a digital camera at excitation and emission wavelengths of 488 and 525 nm, respectively. Data were analyzed using ImageJ (ImageJ, National Institute of Health, Bethesda, MD, USA) and expressed as percentages of DCFDA fluorescence of the corresponding control.

[4] = target: T1, bovine serum albumin (BSA); assay: Fluorescence quenching of BSA; assay type: binding; conditions: for quenching of BSA fluorescence emission intensity: 1.0 µM BSA, up to 10.0 µM compound, excitation 280 nm, pH 7.20, 25 °C; for number of binding sites n (BSA): Scatchard equation; for binding constant K (BSA, Scatchard): phosphate buffer pH 7.20, 25 °C; for Stern-Volmer quenching constant Ksv (BSA): λ = 345 nm, 25 °C
Procedure: Based on fluorescence data for λ = 345 nm at 25 °C, the Stern-Volmer quenching constant (Ksv) and the bimolecular quenching rate constant (kq) were obtained using the classical Stern-Volmer equation (Equation (3)). The value of kq was calculated by the Ksv/τ0 ratio, where τ0 is the average lifetime of the fluorophore in the absence of quencher (τ0 =10 ns for BSA).
The interaction of complexes 1 and 2 with bovine serum albumin (BSA) was studied in phosphate buffer (8.3 mM, pH = 7.20). Stock solution of BSA (0.5 mM) was prepared in phosphate buffer and stored in the dark in the refrigerator for further use. The stock solutions of complexes were freshly prepared by first dissolving the compounds in DMF and then making the dilutions with phosphate buffer (pH = 7.20). The amount of DMF was kept less than 5% (by volume) for each set of experiment and had no effect on any experimental results.
as §1
If it is assumed that the binding of compounds with BSA occurs at equilibrium, the equilibrium binding constant can be analyzed according to the Scatchard equation [28].

[5] = test system: U87 cells; assay: ROS generation, DCFH-DA assay, U87 cells; assay type: cell-based, human; conditions: 1 × 10^−5 mol/L, 24 h
Source text: as §5, §6

[6] = test system: MRC5 (Human Fetal Lung Fibroblast) cells; assay: MTT cytotoxicity assay, MRC5 fibroblasts; assay type: cell-based; conditions: 48 h treatment
Procedure: as §2, §3, §4

Structure (SMILES) | decrease of BSA synchronous fluorescence intensity at Δλ = 60 nm [1] | decrease of BSA synchronous fluorescence intensity at Δλ = 15 nm [1] | IC50 [2] | selectivity index (SI = IC50MRC5/IC50tumor cell), U87 [2] | ROS levels in MRC5 cells compared with glioma cells [3] | quenching of BSA fluorescence emission intensity [4] | number of binding sites n (BSA) [4] | binding constant K (BSA, Scatchard) [4] | Stern-Volmer quenching constant Ksv (BSA) [4] | ROS levels in U87 cells compared with T98 cells [5] | IC50 [6]
CC(=O)NN=C(C)c1ccccn1.[Cl][Cu][Cl] [compound 1, [dichloro(2-acetylpyridineacetyl-hydrazone)copper(II)]] | ~ 41% | ~ 16% | 3.02 ± 0.85 µM | 7.45 | lower levels of ROS in MRC5 cells | ~ 35% | 1.06 ± 0.01 | (1.11 ± 0.04) × 10^5 M^−1 | (0.55 ± 0.01) × 10^5 M^−1 | higher levels of ROS in U87 cells | 22.5 ± 3.13 µM
CC(=O)NN=C(c1ccccc1)c1ccccn1.[Cl][Cu][Cl] [compound 2, [dichloro(2-benzoylpyridineacetylhydrazone)copper(II)]] | ~ 44% | ~ 18% | 5.95 ± 0.74 µM | 8.30 | lower levels of ROS in MRC5 than in T98 glioma cells | ~ 40% | 1.06 ± 0.01 | (1.37 ± 0.05) × 10^5 M^−1 | (0.68 ± 0.01) × 10^5 M^−1 | equally effective in both cell lineages | 49.4 ± 8.83 µM
